Reference: patent US11351218B2, “Composition for preventing or treating glioblastoma comprising Platycodon grandiflorum A. De Candolle, Scutellaria baicalensis, Phellodendron amurense Ruprecht or Rubus coreanus” (University-Industry Cooperation Group of Kyung Hee …, priority 2019, dated 2022)

Tested on: U87MG and U373MG cells
Experiment: BODIPY FL LDL uptake assay, GBM cells
Assay type: cell-based, human
Conditions: PD 10 μM 24 hours, BODIPY FL LDL 1 hour
Method: Cells were treated with DMSO, PD (10 μM), or U18 (1 μM) for 24 hours and subsequently loaded with BODIPY™ FL LDL. BODIPY-LDL uptake was visualized by confocal microscopy. Nuclei were stained with DAPI (blue). Quantification shown on the right graph represents a relative fold change from three independent experiments±SD.
Cells seeded on coverslips were treated with the materials and then the culture medium was replaced with BODIPY™ FL LDL (Thermo Fisher Scientific) at a working concentration of 5 μg/mL in a medium. The cells were additionally incubated at 37° C. for 1 hour. The degree of LDL uptake was measured using a Zeiss laser confocal microscope.
Based on the previous study results of the present inventors that PD increases cell surface LDLR expression and accumulate cholesterol within lysosomes, whether PD can increase the uptake of exogenous LDL was examined Cells pretreated with PD or U18666A were incubated with BODIPY FL-labeled LDL particles for 1 hour and the LDL uptake was observed by a confocal microscope. Upon analysis of these cells, it was observed that PD caused about a 6-fold increase in LDL uptake and it was a level similar to that detected in the U18666A-treated cells.

C[C@@H]1O[C@@H](O[C@H]2[C@H](OC(=O)[C@]34CCC(C)(C)C[C@H]3C3=CC[C@@H]5[C@@]6(C)C[C@H](O)[C@H](O[C@@H]7O[C@H](CO)[C@@H](O)[C@H](O)[C@H]7O)C(CO)(CO)[C@@H]6CC[C@@]5(C)[C@]3(C)C[C@H]4O)OC[C@H](O)[C@@H]2O)[C@H](O)[C@H](O)[C@H]1O[C@@H]1OC[C@@H](O)[C@H](O[C@@H]2OC[C@](O)(CO)[C@H]2O)[C@H]1O [PD, platycodin D]
increase in LDL uptake: ~6 fold
